Measurements reported in patent publication US12692254B2, “Benzimidazole inhibitors of PAD enzymes” (BRISTOL-MYERS SQUIBB COMPANY, priority 2018, dated 2026).

target: human PAD4 (hPAD4) (Homo sapiens, UniProt Q9UM07); assay: RFMS human PAD4 functional assay (rapid-fire mass spectrum); assay type: biochemical; conditions: 5 nM hPAD4 enzyme, 250 μM BAEE, 50 μM Calcium; 30 min preincubation, 90 min reaction at 37° C.
Procedure, shortened: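 PAD4 (10 nM) preincubated 30 min with compound (top final 50 μM), then BAEE substrate added in pH 7.5 HEPES buffer with DTT, 50 μM calcium, TPEN; 90 min at 37° C. After TCA quench, citrulline derivatized with phenyl glyoxal (4 mM final, 30 min, 37° C) and quantified by RapidFire MS against internal standard.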

human PAD4 (hPAD4), sequence (Q9UM07 whole entry): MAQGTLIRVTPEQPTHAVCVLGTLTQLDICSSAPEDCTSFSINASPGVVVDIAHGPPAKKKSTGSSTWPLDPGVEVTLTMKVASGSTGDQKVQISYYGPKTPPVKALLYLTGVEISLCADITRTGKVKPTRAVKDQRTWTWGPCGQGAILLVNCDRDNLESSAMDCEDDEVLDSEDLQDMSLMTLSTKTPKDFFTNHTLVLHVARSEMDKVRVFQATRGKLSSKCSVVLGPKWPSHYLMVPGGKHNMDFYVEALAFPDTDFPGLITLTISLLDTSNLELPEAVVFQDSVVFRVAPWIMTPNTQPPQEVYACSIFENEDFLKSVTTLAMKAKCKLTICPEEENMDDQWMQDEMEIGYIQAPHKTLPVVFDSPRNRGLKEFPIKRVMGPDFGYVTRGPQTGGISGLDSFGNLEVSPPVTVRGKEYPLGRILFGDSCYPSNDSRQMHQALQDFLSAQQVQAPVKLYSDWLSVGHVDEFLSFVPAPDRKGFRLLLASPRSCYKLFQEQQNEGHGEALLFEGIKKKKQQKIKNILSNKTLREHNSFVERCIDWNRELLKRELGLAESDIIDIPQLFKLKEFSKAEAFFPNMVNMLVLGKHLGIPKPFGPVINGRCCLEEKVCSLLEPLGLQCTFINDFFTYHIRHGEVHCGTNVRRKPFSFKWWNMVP

**Q.** Which IC50 does the source give for `COc1cc(C(=O)N2CC3CCC2[C@@H]3N)cc2nc(-c3cc4ccccc4n3CC3CC3)n(Cc3cnn(-c4ccnc(N)c4)c3)c12` (stereo partly drawn) [Example 361, (7R)-2-(1-{[1-(2-aminopyridin-4-yl)-1H-pyrazol-4-yl]methyl}-2-[1-(cyclopropylmethyl)-1H-indol-2-yl]-7-methoxy-1H-1,3-benzodiazole-5-carbonyl)-2-azabicyclo[2.2.1]heptan-7-amine] here?
**A.** 25 nM

**Q.** For `CCn1cc(Cn2c(-c3cc4ccccc4n3CC3CC3)nc3cc(C(=O)N4CC5CCC4[C@@H]5N)cc(OC)c32)cn1` (stereo partly drawn) [Example 481, (7R)-2-{2-[1-(cyclopropylmethyl)-1H-indol-2-yl]-1-[(1-ethyl-1H-pyrazol-4-yl)methyl]-7-methoxy-1H-1,3-benzodiazole-5-carbonyl}-2-azabicyclo[2.2.1]heptan-7-amine], which IC50 is on record?
**A.** 20 nM

**Q.** How did the IC50 turn out when `COc1ccc(C(=O)N2CC(Cn3c(-c4cc5ccccc5n4CC4CC4)nc4cc(C(=O)N5C[C@H]6CC[C@@H]5[C@@H]6N)cc(OC)c43)C2)cc1` [Example 153, (1R,4R,7R)-2-{2-[1-(cyclopropylmethyl)-1H-indol-2-yl]-7-methoxy-1-{[1-(4-methoxybenzoyl)azetidin-3-yl]methyl}-1H-1,3-benzodiazole-5-carbonyl}-2-azabicyclo[2.2.1]heptan-7-amine] was run?
**A.** 21 nM

**Q.** With `COc1cc(C(=O)N2C[C@H]3CC[C@@H]2[C@@H]3N)cc2nc(-c3cc4cc(Cl)ccc4n3C)n(CC3CN(c4cncc(C#N)n4)C3)c12` [Example 59, 6-[3-({5-[(1R,4R,7R)-7-amino-2-azabicyclo[2.2.1]heptane-2-carbonyl]-2-(5-chloro-1-methyl-1H-indol-2-yl)-7-methoxy-1H-1,3-benzodiazol-1-yl}methyl)azetidin-1-yl]pyrazine-2-carbonitrile] as the compound, how does the IC50 read?
**A.** 171 nM

**Q.** Which IC50 does the source give for `COC(=O)c1cc(C(=O)N2CC(Cn3c(-c4cc5cccnc5n4CC4CC4)nc4cc(C(=O)N5C[C@H]6CC[C@@H]5[C@@H]6N)cc(OC)c43)C2)ccn1` [Example 129, methyl 4-[3-({5-[(1R,4R,7R)-7-amino-2-azabicyclo[2.2.1]heptane-2-carbonyl]-2-[1-(cyclopropylmethyl)-1H-pyrrolo[2,3-b]pyridin-2-yl]-7-methoxy-1H-1,3-benzodiazol-1-yl}methyl)azetidine-1-carbonyl]pyridine-2-carboxylate] here?
**A.** 116 nM

**Q.** How did the IC50 turn out when `COc1cc(C(=O)N2C[C@H]3CC[C@@H]2[C@@H]3N)cc2nc(-c3cc4ccccc4n3CC3CC3)n(CC3CN(C(=O)c4ccc(F)cc4)C3)c12` [Example 161, (1R,4R,7R)-2-{2-[1-(cyclopropylmethyl)-1H-indol-2-yl]-1-{[1-(4-fluorobenzoyl)azetidin-3-yl]methyl}-7-methoxy-1H-1,3-benzodiazole-5-carbonyl}-2-azabicyclo[2.2.1]heptan-7-amine] was run?
**A.** 25 nM

**Q.** Which IC50 does the source give for `COc1cc(C(=O)N2C[C@H]3CC[C@@H]2[C@@H]3N)cc2nc(-c3cc4cccnc4n3CC3CC3)n(CC3CN(c4nccnc4C#N)C3)c12` [Example 15, 3-[3-({5-[(1R,4R,7R)-7-amino-2-azabicyclo[2.2.1]heptane-2-carbonyl]-2-[1-(cyclopropylmethyl)-1H-pyrrolo[2,3-b]pyridin-2-yl]-7-methoxy-1H-1,3-benzodiazol-1-yl}methyl)azetidin-1-yl]pyrazine-2-carbonitrile] here?
**A.** 47 nM

**Q.** How did the IC50 turn out when `COc1cc(C(=O)N2C[C@H]3CC[C@@H]2[C@@H]3N)cc2nc(-c3cc4ccc(Cl)cc4n3CC3CC3)n(CC3CN(c4ccnc(C5CC5)n4)C3)c12` [Example 53, (1R,4R,7R)-2-{2-[6-chloro-1-(cyclopropylmethyl)-1H-indol-2-yl]-1-{[1-(2-cyclopropylpyrimidin-4-yl)azetidin-3-yl]methyl}-7-methoxy-1H-1,3-benzodiazole-5-carbonyl}-2-azabicyclo[2.2.1]heptan-7-amine] was run?
**A.** 157 nM
